{"source": "paper PMC7317212", "about": "(Chemmedchem, 2020)", "key": {"mGAT1 [1]": {"target": "T1, mGAT1 (Mus musculus, UniProt P31648)", "T1 construct": "expressed in transfected cells; host or cells: HEK293", "test": "MS Binding Assay with NO711 as native MS marker", "details": "MS Binding Assay, NO711 marker; pKi±SEM; read-out: pK i mGAT1 (converted)", "how_it_was_run": "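Competitive MS binding using membranes from HEK293 cells stably expressing mGAT1, with 10 nM unlabeled NO711 as marker and compounds at 7 concentrations. Nonspecific binding defined with 100 mM GABA. Bound NO711 eluted after filtration and quantified by LC-ESI-MS/MS against [2H10]NO711; Ki derived.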"}, "mGAT1 [2]": {"target": "T1, mGAT1", "test": "[^3H]GABA uptake assay, HEK293 cells expressing mGAT1", "format": "cell-based", "details": "[^3H]GABA uptake; pIC50±SEM", "how_it_was_run": "(§1)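 HEK293 cells expressing mouse GATs preincubated 25 min at 37 °C with compound in Krebs buffer pH 7.2, then [3H]GABA added: 8 nM plus 32 nM unlabeled for 4 min (mGAT1/3/4), 20 nM plus 20 nM for 10 min (mGAT2). Filtration, scintillation counting; nonspecific uptake with 10 mM (mGAT1/3/4) or 100 mM GABA (mGAT2); pIC50.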"}, "mGAT4": {"target": "T2, mGAT4 (Mus musculus, UniProt P31650)", "T2 construct": "expressed in transfected cells; host or cells: HEK293", "T2 sequence (P31650 1-627)": "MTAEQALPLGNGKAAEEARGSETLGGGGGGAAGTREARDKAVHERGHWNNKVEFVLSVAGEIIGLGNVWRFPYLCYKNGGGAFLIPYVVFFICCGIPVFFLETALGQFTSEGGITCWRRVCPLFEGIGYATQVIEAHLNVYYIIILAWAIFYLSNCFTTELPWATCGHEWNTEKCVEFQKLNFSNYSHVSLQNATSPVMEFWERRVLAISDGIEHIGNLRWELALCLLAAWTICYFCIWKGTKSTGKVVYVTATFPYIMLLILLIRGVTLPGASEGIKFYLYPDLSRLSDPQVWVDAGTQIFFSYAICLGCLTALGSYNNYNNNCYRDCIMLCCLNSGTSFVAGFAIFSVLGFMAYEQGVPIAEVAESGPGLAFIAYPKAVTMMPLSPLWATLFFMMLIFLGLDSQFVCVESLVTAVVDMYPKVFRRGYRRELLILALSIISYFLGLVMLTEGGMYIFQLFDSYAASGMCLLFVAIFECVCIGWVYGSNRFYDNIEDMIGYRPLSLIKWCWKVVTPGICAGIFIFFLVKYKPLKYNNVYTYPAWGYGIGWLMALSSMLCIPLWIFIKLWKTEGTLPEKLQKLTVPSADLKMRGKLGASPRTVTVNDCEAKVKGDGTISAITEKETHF", "test": "[^3H]GABA uptake assay, HEK293 cells expressing mGAT4", "format": "cell-based", "details": "[^3H]GABA uptake; pIC50±SEM", "how_it_was_run": "as §1"}, "mGAT3": {"target": "T3, mGAT3 (Mus musculus, UniProt P31649)", "T3 construct": "expressed in transfected cells; host or cells: HEK293", "T3 sequence (P31649 1-602)": "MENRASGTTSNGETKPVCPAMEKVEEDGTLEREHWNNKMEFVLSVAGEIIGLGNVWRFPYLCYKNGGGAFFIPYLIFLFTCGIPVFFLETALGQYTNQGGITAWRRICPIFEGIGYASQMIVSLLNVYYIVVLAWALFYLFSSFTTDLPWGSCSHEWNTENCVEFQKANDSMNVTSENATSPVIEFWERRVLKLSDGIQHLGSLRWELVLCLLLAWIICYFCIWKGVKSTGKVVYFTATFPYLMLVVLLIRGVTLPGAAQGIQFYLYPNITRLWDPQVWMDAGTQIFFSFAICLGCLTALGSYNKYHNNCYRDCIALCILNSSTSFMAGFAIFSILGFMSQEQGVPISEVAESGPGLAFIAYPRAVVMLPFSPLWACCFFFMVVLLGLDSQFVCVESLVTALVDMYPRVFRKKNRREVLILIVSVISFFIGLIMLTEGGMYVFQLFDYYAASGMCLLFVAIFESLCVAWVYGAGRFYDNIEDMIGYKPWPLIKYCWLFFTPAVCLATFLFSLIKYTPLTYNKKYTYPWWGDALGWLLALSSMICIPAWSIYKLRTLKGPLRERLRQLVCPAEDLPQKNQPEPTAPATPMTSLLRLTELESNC", "test": "[^3H]GABA uptake assay, HEK293 cells expressing mGAT3", "format": "cell-based", "details": "[^3H]GABA uptake; pIC50±SEM", "how_it_was_run": "as §1"}}, "data": [{"smiles": "COc1ccc(C(OCCN2CCCC(C(=O)O)C2)(c2ccc(C=O)cc2)c2ccc(OC)cc2)cc1", "note": "(racemic) [5 a, rac‐ 1‐{2‐[(4‐Formylphenyl)bis(4‐methoxyphenyl)methoxy]ethyl}piper‐idine‐3‐carboxylic acid]", "values": [{"measurement": "Ki", "setting": "mGAT1 [1]", "value": 38.9, "unit": "µM"}, {"measurement": "IC50", "setting": "mGAT1 [2]", "value": 67.6, "unit": "µM"}, {"measurement": "IC50", "setting": "mGAT4", "value": 1.7, "unit": "µM"}, {"measurement": "IC50", "setting": "mGAT3", "value": 10.5, "unit": "µM"}]}]}
